We go through eleven compounds from ChEMBL document CHEMBL1129228, “Naphtho-fused azepines as potent growth hormone secretagogues” (Bioorg Med Chem Lett, 1997).

Square brackets hold non-standard residues; d marks the D form. Peptide text beside a SMILES is read from it. ξ: configuration not given here. 1Nal = N[C@@H](Cc1cccc2ccccc12)C(=O)O; ξ1Nal = NC(Cc1cccc2ccccc12)C(=O)O; 3Amb = NCc1cccc(C(=O)O)c1

Usually bioavailability stands for the share of a dose that reaches the circulation, judged against a reference dose that is usually intravenous. High values mean good availability, low ones poor availability.

System in one data set: not listed separately
Kind of data set: Oral bioavailability determined in rats. In kind it is ADME, organism-based. Conditions: rat, in vivo.
`CC(C)(N)CC(=O)N[C@@H]1CCc2c(ccc3ccccc23)N(Cc2ccc(-c3ccccc3-c3nn[nH]n3)cc2)C1=O`: the bioavailability was under 5%.

For another data set, the species on record is Rattus norvegicus. As to the kind of experiment: Compound was evaluated for its potency using rat pituitary cell assay. In kind it is functional. Particulars: Pituitary gland cell, read-out: ED50 (the source's name).
As to `Cc1nnc(-c2cscc2-c2ccc(CN3C(=O)[C@H](NC(=O)CC(C)(C)N)CCc4c3ccc3ccccc43)cc2)o1`, the EC50 worked out at 37 nM.

Regarding `CC(C)(N)CC(=O)N[C@@H]1CCc2c(ccc3ccccc23)N(Cc2ccc(-c3ccccc3-c3nn[nH]n3)cc2)C1=O`, the EC50 turned out to be 4 nM.

For the compound `CC(C)(N)C(=O)N[C@@H]1CCc2ccccc2N(Cc2ccc(-c3ccccc3-c3nn[nH]n3)cc2)C1=O`, the EC50 is 30 nM.

On to `CC(C)(N)CC(=O)N[C@@H]1CCc2ccccc2N(Cc2ccccc2)C1=O`, for which the EC50 was 1000 nM.

As for `CC(C)(N)CC(=O)N[C@@H]1CCc2ccccc2N(Cc2ccc(-c3ccccc3)cc2)C1=O`, the EC50 was determined as 1700 nM.

Take `CC(C)(N)CC(=O)N[C@@H]1CCc2ccccc2N(Cc2ccc(-c3ccccc3-c3nn[nH]n3)cc2)C1=O`: the EC50 amounted to 125 nM.

Take `CC(C)(N)CC(=O)N[C@@H]1CCc2c(ccc3ccccc23)N(Cc2ccccc2)C1=O`: the EC50 turned out to be 8500 nM.

For `NC1(C(=O)N[C@@H]2CCc3c(ccc4ccccc34)N(Cc3ccc(-c4ccccc4-c4nn[nH]n4)cc3)C2=O)CC1`, the EC50 came to 175 nM.

Regarding `Cc1nnc(-c2cscc2-c2ccc(CN3C(=O)[C@H](NC(=O)CC(C)(C)N)CCc4ccccc43)cc2)o1`, the EC50 came to 62 nM.

With `C[C@H](N)C(=O)N[C@@H](Cc1ccccc1)C(=O)N[C@@H](Cc1cccc2ccccc12)C(=O)N[C@@H](Cc1ccccc1)C(=O)N[C@@H](CCCCN)C(N)=O` (H-AF[1Nal]FK-NH2), the EC50 amounted to 2 nM.

In the case of `NCCCC[C@H](NC(=O)[C@H](Cc1ccccc1)NC(=O)C(Cc1cccc2ccccc12)NC(=O)c1cccc(CN)c1)C(N)=O` (some centres not stated) (H-[3Amb][ξ1Nal]FK-NH2), the EC50 worked out at 7 nM.
